Patent US6387668B1, “Enantioselective epoxide hydrolases and genes encoding these” (Rijksuniversiteit Groningen, priority 1997, dated 2002)

B1: epoxide hydrolase: 34 kDa monomeric enzyme (approximately 294 amino acids) from Agrobacterium radiobacter AD1, expressed in E.coli (protein)
chain: MTIRRPEDFKHYEVQLPDVKIHYVREGAGPTLLLLHGWPGFWWEWSKVIGPLAEHYDVIVPDLRGFGDSEKPDLNDLSKYSLDKAADDQAALLDALGIEKAYVVGHDFAAIVLHKFIRKYSDRVIKAAIFDPIQPDFGPVYFGLGHVHESWYSQFHQLDMAVEVVGSSREVCKKYFKHFFDHWSYRDELLTEEELEVHVDNCMKPDNIHGGFNYYRANIRPDAALWTDLDHTMSDLPVTMIWGLGDTCVPYAPLIEFVPKYYSNYTMETIEDCGHFLMVEKPEIAIDRIKTAFR

Experiments:
[1] = biological target: epoxide hydrolase (Agrobacterium tumefaciens, UniProt O31243); experiment: Kinetics of epoxide hydrolase with epichlorohydrin as substrate; assay type: biochemical, Agrobacterium radiobacter
Excerpt: It is now possible to study the kinetics of epoxide hydrolase by performing rapid quench and stopped flow experiments. Stopped flow experiments are possible since substrate is able to quench the fluorescence signal of some of the tryptophans present in epoxide hydrolase. Also, it is possible to mutate (replace) the amino acids (e.g. tryptophans) that are involved in substrate binding. Either with site-directed mutagenesis or random mutagenesis, it is possible to modify the substrate specificity and the stereoselectivity of epoxide hydrolase. The epoxide hydrolase has the following characteristics.
The asymmetric hydrolysis of the substrate is generally conducted in aqueous solution. The pH of the solution is maintained by means of a buffer. Maximum enzyme activity is obtained at pH 9 but a range of pH 5 to 11 can be employed. The composition of the buffer can for example be Tris/H2SO4, potassium phosphate or glycine/NaOH. The maximum enzyme activity is obtained at a temperature of 50° C., but the reaction can be conducted at a temperature ranging from 5° C. to 65° C. The substrate concentration used to measure the enzyme activity is from 1 to 20 mM. In case of poorly soluble substrates, the water solubility can be increased by adding a miscible organic cosolvent such a DMSO. Also other organic solvents can be used. […]

[2] = Storage stability of recombinant epoxide hydrolase; assay type: physicochemical; conditions: 4° C., expressed in E.coli

Molecule | Km [1] | Vmax [1] | Stability on storage [2]
ClCC1CO1 (stereo not drawn) [epichlorohydrin] | < 30 µM | 25 μmol min^−1.mg.protein^−1 | 
B1 |  |  | stable at 4 °C for at least half a year
